Where no end group is shown, it is not given here.
Tested on: ddy male mice
Conditions: mouse, in vivo, iv
Protocol: By using the peptide prepared in Example 1, its acute toxicity was tested on ddy male mice (with the body weight ranging from 40 to 45 g). The present peptide was dissolved in a physiological saline (pH 6.0) and the solution thereof was administered intravenously into a vein in the tail of each mouse, and observation was made for 14 days. The dosage amount was set respectively at 1, 10, and 100 μg/kg.

With “KLTTIFPLNWKYRKAL [Example 1, Lys Leu Thr Thr Ile Phe Pro Leu Asn Trp Lys Tyr Arg Lys Ala Leu]” the “Deceased mice (in words)” value was “not deceased mouse observed” and the “Number of Deceased Mice” value was 0/5.

— patent US6930091B2, “Peptides and remedy for bone diseases containing the same as active ingredient” (priority 1995, dated 2005)
